# Reference: patent US20130029981A1, “COMPOUNDS, COMPOSITIONS, AND METHODS FOR CONTROLLING BIOFILMS” (Katholieke Universiteit Leuven, priority 2009, published 2013)
# Where two headings read alike, the source gives them in different places.
# What was measured:
# [1] = test system: Pseudomonas aeruginosa PA14; assay: Static peg assay for prevention of biofilm formation (Calgary device, crystal violet); assay type: cell-based
# Method: (§1) Evaluation of the biofilm inhibitory activity of some substituted 2-amino-1H-imidazoles of the invention was carried out by growing up biofilms of S. Typhimurium ATCC14028 or SL1344 or Pseudomonas aeruginosa PA14 in the presence of different concentrations (1/2 dilution series) of biofilm inhibitors, by using the Calgary biofilm device. After an incubation period of 24 hours at 25° C. or 37° C. or 48 hours at 16° C. the biofilms were visualized by crystal violet staining. In the next step the stain was extracted from the biofilm with 30% acetic acid. The absorbance of the resolubilized stain at 570 nm is a measure of the amount of biofilm formed.
# The device used for Pseudomonas aeruginosa biofilm formation is the same platform carrying polystyrene pegs as described above for Salmonella Typhimurium.
# Two-fold serial dilutions of the compounds in 100 μl liquid broth per well were prepared in the microtiter plate. Subsequently, an overnight culture of P. aeruginosa PA14 (grown up in TSB medium) was diluted 1:100 into liquid broth and 100 μl was added to each well of the microtiter plates, resulting in a total amount of 200 μl medium per well. The pegged lid was placed on the microtiter plate and the plate was incubated for 24 hours at 25° C., 30° C. or 37° C. without shaking. During this incubation period biofilms were formed on the surface of the pegs. The liquid broth used for the tests at 25° C. was TSB 1/20. The tests at 37° C. were performed in CFA and/or LBNS broth. During incubation at 30° C. and 37° C. the plates were placed in a humidity controlled container to prevent evaporation of the growth medium. Quantification of biofilm formation was performed similarly as described previously for the S. Typhimurium biofilm assays.
# as §1, with “imidazo[1,2-a]pyrimidinium bromide salts” for “2-amino-1H-imidazoles”
# as §1, with “substituted imidazo[1,2-a]-pyrimidinium bromide and perchlorate salts produced according to examples 3 and 5” for “substituted 2-amino-1H-imidazoles of the invention”, “C.” for “C. or 37° C. or 48 hours at 16° C.”, “nm was taken as” for “nm is”
# [2] = test system: S. Typhimurium ATCC14028; assay: as above; assay type: cell-based, Salmonella Typhimurium
# Method: as §1
# In examples 2 and 3, the following materials and methods were used.
# The device used for biofilm formation is a platform carrying 96 polystyrene pegs (Nunc no. 445497) that fits as a microtiter plate lid with a peg hanging into each microtiter plate well (Nunc no. 269789). Biofilm formation assays were carried out at 16° C., 25° C. and 37° C.
# For biofilm assays at 16° C. and 25° C., two-fold serial dilutions of the compounds in 100 μl liquid TSB 1/20 broth per well were prepared in the microtiter plate. Subsequently, an overnight culture of S. Typhimurium ATCC14028 or SL1344 (grown up in LB medium) was diluted 1:100 into TSB 1/20 broth and 100 μl (ca. 10^6 cells) was added to each well of the microtiter plates, resulting in a total amount of 200 μl medium per well. The pegged lid was placed on the microtiter plate and the plate was incubated for 48 hours at 16° C. or for 24 hours at 25° C. without shaking. During this incubation period biofilms were formed on the surface of the pegs. In case of the assay at 16° C., after 24 hours the lid was transferred into a new plate with medium and the specific molecules used for testing. […] For quantification of biofilm formation, the pegs were washed once in 200 μl phosphate buffered saline (PBS). The remaining attached bacteria were stained for 30 minutes with 200 μl 0.1% (w/v) crystal violet in an isopropanol/methanol/PBS solution (v/v 1:1:18). Excess stain was rinsed off by placing the pegs in a 96-well plate filled with 200 μl distilled water per well. After the pegs were air dried (30 min), the dye bound to the adherent cells was extracted with 30% glacial acetic acid (200 μl). The OD570 of each well was measured using the VERSAmax microtiter plate reader. The IC50 value for each compound was determined from concentration gradients in two or three independent experiments (with 2 or 3 repeats per experiment), by using the GraphPad software of Prism.
# For biofilm assays at 37° C., two-fold serial dilutions of the compounds in 50 μl liquid CFA broth per well were prepared in the microtiter plate. Subsequently, an overnight culture of S. Typhimurium ATCC 14028 was diluted 1:100 into CFA broth and 100 μl (ca. 10^6 cells) was added to each well of the microtiter plates, resulting in a total amount of 150 μl medium per well. The pegged lid was placed on the microtiter plate and the plate was incubated for 24 hours at 37° C. without shaking. During incubation the plates were placed in a humidity controlled container to prevent evaporation of the growth medium. Quantification of biofilm formation was performed similarly as described above for the assays at 16° C. and 25° C.
# as §1, with “imidazo[1,2-a]pyrimidinium bromide salts” for “2-amino-1H-imidazoles”
# [3] = 25° C., Table 22, read-out: P. aeruginosa IC50 (biofilm formation)
# [4] = 25° C., Table 22, read-out: S. Typhimurium IC50 (biofilm formation)
# [5] = 25° C., Table 16, read-out: P. aeruginosa IC50 (biofilm formation)
# [6] = 25° C., 24 hours, Table 15, read-out: (1) IC50 (biofilm inhibition)
# [7] = 25° C., Table 16, read-out: S. Typhimurium IC50 (biofilm formation)
# [8] = P. aeruginosa PA14, 25° C., read-out: P. aeruginosa IC50 (biofilm formation)
# [9] = S. Typhimurium ATCC 14028, 25° C., read-out: S. Typhimurium IC50 (biofilm formation)
# [10] = 25° C., 24 hours, Table 15, read-out: (2) IC50 (biofilm inhibition)
# [11] = Pseudomonas aeruginosa, PA14, 24 h, read-out: (2) IC50 (biofilm inhibition)
# [12] = Salmonella enterica, 24 h, read-out: (1) IC50 (biofilm inhibition)
# [13] = Table 21, P. aeruginosa PA14, 25° C., read-out: P. aeruginosa IC50 (biofilm formation)
# [14] = Table 21, S. Typhimurium ATCC14028, 25° C., read-out: S. Typhimurium IC50 (biofilm formation)
# [15] = 25° C., Table 17, read-out: P. aeruginosa IC50 (biofilm formation)
# [16] = 25° C., Table 17, read-out: S. Typhimurium IC50 (biofilm formation)
# [17] = S. Typhimurium ATCC 14028, 25° C., read-out: IC50 for biofilm inhibition (25° C.)
structure (smiles),measurement,setting,value
COc1ccc(CNc2ncc(-c3ccc([N+](=O)[O-])cc3)[nH]2)cc1 [Compound 128],IC50,[1]; [3],> 800 µM
same,IC50,[2]; [4],> 800 µM
CCCCCCCCCCCCCCN1c2nccc[n+]2CC1(O)c1ccccc1 (racemic) [Compound 14],IC50,[1]; [5],> 800 µM
same,IC50,[2]; [6],180 µM
same,IC50,[2]; [7],180 µM
c1ccc2c(-c3cnc(NCc4ccc5c(c4)OCO5)[nH]3)cccc2c1 [Compound 133],IC50,"[1]; Pseudomonas aeruginosa, PA14, 25° C., Table 22, read-out: P. aeruginosa IC50 (biofilm formation)",10.5 µM
same,IC50,"[2]; Salmonella enterica, 25° C., Table 22, read-out: S. Typhimurium IC50 (biofilm formation)",261 µM
CCCCCCCCNc1ncc(-c2ccc(Cl)c(Cl)c2)[nH]1 [Compound 111],IC50,[1]; [8],> 800 µM
same,IC50,[2]; [9],118 µM
CCCCCCCCCCN1c2nccc[n+]2CC1(O)c1ccccc1 (racemic) [Compound 10],IC50,[1]; [10],3.95 µM
same,IC50,[1]; [5],47 µM
same,IC50,[2]; [6],15 µM
same,IC50,[2]; [7],15 µM
"CCCCCCCC[n+]1c(-c2ccc(S(C)(=O)=O)cc2)cn2cccnc21.[O-][Cl+3]([O-])([O-])[O-] [1-octyl-2-(4-methylsulfonylphenyl)-imidazo[1,2-a]pyrimidin-1-ium perchlorate]",IC50,[1]; [11],49.6 µM
same,IC50,[2]; [12],82 µM
"CCCCCCCC[n+]1c(-c2ccc(Cl)c(Cl)c2)cn2cccnc21.[O-][Cl+3]([O-])([O-])[O-] [2-(3,4-Dichlorophenyl)-1-octylimidazo[1,2-a]pyrimidin-1-ium perchlorate]",IC50,[1]; [11],12.7 µM
same,IC50,[2]; [12],3.84 µM
CCCCCCCCCCCN1c2nccc[n+]2CC1(O)c1ccc(Cl)cc1 (racemic) [Compound 24],IC50,[1]; [10],205 µM
same,IC50,[1]; [5],> 800 µM
same,IC50,[2]; [6],61.9 µM
same,IC50,[2]; [7],61.9 µM
CCCCCCCCN1c2nccc[n+]2C[C@@]1(O)c1cccc2ccccc12 [Compound 52],IC50,"[1]; Pseudomonas aeruginosa, PA14, 25° C., Table 17, read-out: P. aeruginosa IC50 (biofilm formation)",15.1 µM
same,IC50,"[1]; Pseudomonas aeruginosa, PA14, 24 h, 25° C., 24 hours, Table 15, read-out: (2) IC50 (biofilm inhibition)",16.7 µM
same,IC50,"[2]; Salmonella enterica, 25° C., 24 hours, Table 15, read-out: (1) IC50 (biofilm inhibition)",14.7 µM
same,IC50,"[2]; Salmonella enterica, 25° C., Table 17, read-out: S. Typhimurium IC50 (biofilm formation)",14.7 µM
COc1ccc(-c2cnc(NC3CCCCC3)[nH]2)cc1 [Compound 125],IC50,[1]; [13],54.8 µM
same,IC50,[2]; [14],~378 µM
CCCCCCCCN1c2nccc[n+]2CC1(O)c1cccc(Br)c1 (stereo not drawn) [Compound 56],IC50,[1]; [10],~13.2 µM
same,IC50,[1]; [15],29 µM
same,IC50,[2]; [6],7.13 µM
same,IC50,[2]; [16],7.1 µM
CCCCNc1ncc(-c2ccc(OC)cc2)[nH]1 [Compound 107],IC50,[1]; [8],46.3 µM
same,IC50,[2]; [9],52.6 µM
COc1cccc(CCNc2ncc(-c3ccc([N+](=O)[O-])cc3)[nH]2)c1 [Compound 129],IC50,[1]; [3],3.7 µM
same,IC50,[2]; [4],19.1 µM
same,IC50,[2]; [17],15 µM
CCCCCCCCCCCCCCN1c2nccc[n+]2CC1(O)c1ccc(Cl)cc1 (racemic) [Compound 27],IC50,[1]; [5],> 800 µM
same,IC50,[2]; [7],> 800 µM
CS(=O)(=O)c1ccc(-c2cnc(N)[nH]2)cc1 [Compound 115],IC50,[1]; [8],> 800 µM
same,IC50,[2]; [9],> 800 µM
CCCCNc1ncc(-c2ccc([N+](=O)[O-])cc2)[nH]1 [Compound 93],IC50,[1]; [8],> 800 µM
same,IC50,[2]; [9],702 µM
Nc1nc(-c2ccc(Cl)cc2)c[nH]1 [Compound 85],IC50,[1]; [8],3.5 µM
same,IC50,[2]; [9],16 µM
CCCCCCCCNc1ncc(-c2ccc(F)cc2)[nH]1 [Compound 100],IC50,[1]; [8],~3.1 µM
same,IC50,[2]; [9],> 400 µM
Fc1ccc(-c2cnc(NCc3ccc4c(c3)OCO4)[nH]2)cc1 [Compound 132],IC50,[1]; [3],456 µM
same,IC50,[2]; [4],66.6 µM
same,IC50,[2]; [17],68 µM
Nc1ncc(-c2ccc(Br)cc2)[nH]1 [Compound 101],IC50,[1]; [8],3.2 µM
same,IC50,[2]; [9],47.9 µM
"CCCCCCCC[n+]1c(-c2ccc(F)cc2)cn2cccnc21.[O-][Cl+3]([O-])([O-])[O-] [2-(4-Fluorophenyl)-1-octylimidazo[1,2-a]pyrimidin-1-ium perchlorate]",IC50,[1]; [11],19.5 µM
same,IC50,[2]; [12],35.7 µM
CCCCCCCCN1c2nccc[n+]2CC1(O)c1ccc(S(C)(=O)=O)cc1 (stereo not drawn) [Compound 54],IC50,[1]; [10],11.5 µM
same,IC50,[1]; [15],99.9 µM
same,IC50,[2]; [6],60.3 µM
same,IC50,[2]; [16],60.3 µM
CCCCCNc1nc(-c2ccc(Cl)cc2)c[nH]1 [Compound 87],IC50,[1]; [8],~6.35 µM
same,IC50,[2]; [9],> 400 µM
CCCCCCCCCCCCN1c2nccc[n+]2CC1(O)c1ccccc1 (racemic) [Compound 12],IC50,[1]; [10],9.63 µM
same,IC50,[1]; [5],> 800 µM
same,IC50,[2]; [6],27.5 µM
same,IC50,[2]; [7],27.5 µM
Nc1nc(-c2ccccc2)c[nH]1 [Compound 81],IC50,[1]; [8],72.6 µM
same,IC50,[2]; [9],130 µM
CSc1ccc(-c2cnc(NC3CCCCC3)[nH]2)cc1 [Compound 126],IC50,[1]; [13],15.8 µM
same,IC50,[2]; [14],191 µM
OC1(c2ccc(Cl)cc2)C[n+]2cccnc2N1C1CCCCCC1 (stereo not drawn) [Compound 65],IC50,[1]; [10],63.8 µM
same,IC50,"[1]; 25° C., Table 18, read-out: P. aeruginosa IC50 (biofilm formation)",76.2 µM
same,IC50,[2]; [6],27.9 µM
same,IC50,"[2]; 25° C., Table 18, read-out: S. Typhimurium IC50 (biofilm formation)",27.9 µM
CCCCCCCCN1c2nccc[n+]2CC1(O)c1ccc(-c2ccc([N+](=O)[O-])cc2)cc1 (stereo not drawn) [Compound 53],IC50,[1]; [10],119 µM
same,IC50,[1]; [15],215 µM
same,IC50,[2]; [6],31 µM
same,IC50,[2]; [16],31 µM
CC(C)CNc1ncc(-c2ccc([N+](=O)[O-])cc2)[nH]1 [Compound 94],IC50,[1]; [8],22.9 µM
same,IC50,[2]; [9],3.8 µM
CCCCCCCCNc1ncc(-c2ccc([N+](=O)[O-])cc2)[nH]1 [Compound 95],IC50,[1]; [8],~25 µM
same,IC50,[2]; [9],10.9 µM
CCCCN1c2nccc[n+]2CC1(O)c1ccc(Cl)cc1 (racemic) [Compound 16],IC50,[1]; [5],24.9 µM
same,IC50,[2]; [7],29.7 µM
